{
  "source": "patent US20200278343A1",
  "about": "“DIRECT VISUALIZATION OF INTEGRATED STRESS RESPONSE ACTIVITY” (priority 2019, published 2020)",
  "molecules": {"B1": {"name": "UL148: viral ER-resident glycoprotein from human cytomegalovirus, ectopically expressed with a C-terminal HA tag (protein, UniProt F5H8Q3 21-316, looked up)", "Membrane protein UL148": "SRDYVHVRLLSYRGDPLVFKHTFSGVRRPFTELGWAACRDWDSMHCTPFWSTDLEQMTDSVRRYSTVSPGKEVTLQLHGNQTVQPSFLSFTCRLQLEPVVENVGLYVAYVVNDGERPQQFFTPQVDVVRFALYLETLSRIVEPLESGRLTVEFDTPDLALAPDLVSSLFVAGHGETDFYMNWTLRRSQTHYLEEMALQVEILKPRGVRHRAIIHHPKLQPGVGLWIDFCVYRYNARLTRGYVRYTLSPKARLPAKAEGWLVSLDRFIVQYLNTLLITMMAAIWARVLITYLVSRRR", "modifications": "C-terminal HA tag"}},
  "key": {"[1]": {"tested_on": "IRE1", "experiment": "Xbp-1 splicing assay (RT-PCR) in HEK-293T cells", "assay_type": "cell-based, human", "settings": "1 mM DTT, 2 h"}, "[2]": {"tested_on": "Integrated Stress Response", "experiment": "UL148-GFP visual probe for ISR inhibition in living cells", "assay_type": "cell-based", "settings": "ARPE-19 cells, UL148-GFP induced 18 hours with 100 ng/mL doxycycline hyclate; 200 nM ISRIB in FIG. 2B", "from_the_text": "The disclosed technology is based on UL148, a viral endoplasmic reticulum (ER)-resident protein, which influences the expression of a viral glycoprotein complex required for cell entry. UL148 activates the Unfolded Protein Response (UPR), resulting in stress-regulated translation of ISR mRNAs such as ATF4. ISR/UPR activation by UL148 causes the formation of large membranous structures from the ER, at which UL148 itself accumulates. […] Other fluorescent proteins may include Allophycocyanin, Brainbow, Cameleon, FMN-binding fluorescent protein, Glutamate-sensitive fluorescent reporter, MCherry, Phycoerythrin, Red fluorescent protein, RoGFP, SmURFP, Synapto-pHluorin, and Yellow fluorescent protein. […] Instead, treatment with an ISR-inhibitor (e.g., ISRIB) causes UL148-GFP to be evenly distributed across the ER such that the GFP staining is uniform and reticular. Therefore, the simple task of determining whether GFP signal is present and whether it is uniform or punctate provides a facile read-out that can be automated to enable high throughput screening for novel small molecule inhibitors that inhibit the ISR.\nARPE-19 epithelial cells carrying a doxycycline inducible gene expression cassette encoding UL148-GFP were treated for 18 hours with 100 ng/mL doxycycline hyclate to induce UL148-GFP expression. In panel A, (FIG. 2A) UL148-GFP was induced in the absence of ISRIB. […]"}, "[3]": {"tested_on": "PERK", "experiment": "Western blot for PERK activation in stably transduced ARPE-19 cells", "assay_type": "cell-based", "settings": "200 nM Tg, 4 h"}, "[4]": {"tested_on": "IRE1", "experiment": "Western blot for phospho-IRE1 (Ser724) in fibroblasts", "assay_type": "cell-based, human", "settings": "Tg-treated fibroblast lysates vs mock-treated, noninfected cells"}, "[5]": {"tested_on": "protein synthesis (mRNA translation) in ARPE-19 cells", "experiment": "Metabolic labeling (35S Met/Cys incorporation) in i148HA and i159HA ARPE-19 cells", "assay_type": "cell-based", "settings": "24 h Dox induction, 30 min 35S Met/Cys pulse, phosphorimager analysis", "protocol": "Having isolated stably transduced ARPE-19 cell populations, the inventors confirmed that that anti-HA immunoreactive polypeptides of the expected size for UL148 (i148^HA) or Rh159 (i159^HA) were induced upon treatment with 100 ng/ml doxycycline (Dox). Furthermore, expression of neither protein caused any overt reduction in cell viability or number, as measured by trypan blue exclusion following 24 h of Dox induction. The inventors therefore concluded that the i148^HA and i159^HA ARPE-19 cells were suitable to address whether UL148 might affect rates of mRNA translation in metabolic labeling studies. For these experiments, i148^HA and i159^HA cells were induced (or mock induced) for transgene expression for 24 h and then incubated in the presence of ^35S-labeled methionine and cysteine for 30 min. In parallel, labeling was also carried out using i159^HA cells that were incubated in the presence of either thapsigargin (Tg) or carrier alone, so as to provide positive and negative controls, respectively, for UPR induction.\nMetabolic labeling. i159^HA or i148^HA cells were seeded at 2×10^5 cells per well in a 24-well cluster plate in Gibco Opti-MEM reduced serum medium (Thermo Fisher) supplemented with 2.5% tetracycline (Tet)-free FBS (Clontech 631101). […] The relative signal per lane was calculated using Bio-Rad 1-D analysis software by reading the signal volume (counts·mm^2) in each lane. […]"}},
  "data": [
    {"molecule": "O[C@H](CS)[C@H](O)CS", "note": "(racemic) [DTT, dithiothreitol]", "values": [
      {"measurement": "splicing of the 26-nt intron from Xbp-1 mRNA", "setting": "[1]", "value": "spliced from nearly all the Xbp-1 mRNA"}
    ]},
    {"molecule": "O=C(COc1ccc(Cl)cc1)NC1CCC(NC(=O)COc2ccc(Cl)cc2)CC1", "note": "(centres unmarked) [ISRIB]", "values": [
      {"measurement": "formation of UL148 structures", "setting": "[2]", "value": "completely blocks the formation of UL148 structures"}
    ]},
    {"molecule": "C/C=C(/C)C(=O)O[C@H]1C(C)=C2[C@H]([C@@H]1OC(=O)CCCCCCC)[C@@](C)(OC(C)=O)C[C@H](OC(=O)CCC)[C@@]1(O)[C@H]2OC(=O)[C@@]1(C)O", "note": "[Tg, thapsigargin]", "values": [
      {"measurement": "decreased mobility of the anti-PERK immunoreactive band (PERK autophosphorylation)", "setting": "[3]", "value": "readily observed"},
      {"measurement": "phospho-IRE1 signal", "setting": "[4]", "value": "robust phospho-IRE1 signal"}
    ]},
    {"molecule": "B1", "values": [
      {"measurement": "decrease in protein synthesis compared to carrier-alone control", "setting": "[5]", "value": "~50", "unit": "%"}
    ]}
  ]
}
